{"source": "patent US10195216B1", "about": "“Antimicrobial activity and oil compositions of Costus speciosus (KOEN)” (King Abdulaziz University, priority 2017, dated 2019)", "key": {"C. albicans": {"tested_on": "C. albicans", "experiment": "agar disc diffusion, inhibition zone", "assay_type": "cell-based, Candida albicans", "settings": "same extract concentrations", "protocol": "(§1) M. gypseum, M. canis, C. albicans and C. tropicalis isolates were obtained from King Faisal Specialist Hospital & Research Centre-Jeddah, Saudi Arabia. They were cultured on sabaroud dextrose agar media (Oxoid CM 41) at 25° C. Antimicrobial activities of essential oils and plant extracts of Indian Costus. About 0.5 g of the testing compound was dissolved in 1.25 ml of a solvent (chloroform, ethanol and methanol) and it was cultured in sabaroud dextrose agar media and blood agar media using the agar disc diffusion method. Each media used were inoculated with 1 ml from a suspension of M. gypseum, M. canis and C. albicans for sabaroud dextrose agar and P. aeruginosa and S. aureus for blood agar. The fungi and yeast were incubated at 25° C. for 8 days, and 48 hours respectively and then tested at 37° C. for 24 hours. After that, the diameter of inhibition zones was measured in millimeters; Baker F J, Breach M R. Medical Microbiological Techniques, Butterworths 1980; Hasenekoglu H. Laboratory techniques for micro fungi. Ataturk University. Erzurum 1990 (both incorporated by reference)."}, "C. tropicalis": {"tested_on": "C. tropicalis", "experiment": "agar disc diffusion, inhibition zone", "assay_type": "cell-based, Candida tropicalis", "settings": "same extract concentrations", "protocol": "as §1"}, "M. gypseum": {"tested_on": "M. gypseum", "experiment": "agar disc diffusion, inhibition zone", "assay_type": "cell-based, Microsporum gypseum", "settings": "diosgenin at 1.25 m", "protocol": "as §1"}}, "data": [{"smiles": "C[C@@H]1CC[C@@]2(OC1)O[C@H]1C[C@H]3[C@@H]4CC=C5C[C@@H](O)CC[C@]5(C)[C@H]4CC[C@]3(C)[C@H]1[C@@H]2C", "note": "[Indian Costus diosgenin, (3β,25R)-spirost-5-en-3-ol]", "values": [{"measurement": "antimicrobial activity in words", "setting": "C. albicans", "result": "not as effective"}, {"measurement": "antimicrobial activity in words", "setting": "C. tropicalis", "result": "not as effective"}, {"measurement": "antimicrobial activity in words", "setting": "M. gypseum", "result": "effective"}]}, {"smiles": "CC1CC[C@@]2(OC1)O[C@H]1C[C@H]3[C@@H]4CC5OC56CCCC[C@]6(C)[C@H]4CC[C@]3(C)[C@H]1[C@@H]2C", "note": "(stereo partly shown) [diosgenin epoxide, 5,6-Epoxyspirostane]", "values": [{"measurement": "melting point", "result": "195 to 200", "unit": "°C"}]}]}
